In the first test the target is T1, human GlyT1c transporter (Homo sapiens, UniProt P48067).
T1 construct: expressed in transfected cells; host or cells: CHO cells (recombinant; line hGlyT1c_5_CHO is named for the uptake assay)
T1 sequence (P48067 1-706): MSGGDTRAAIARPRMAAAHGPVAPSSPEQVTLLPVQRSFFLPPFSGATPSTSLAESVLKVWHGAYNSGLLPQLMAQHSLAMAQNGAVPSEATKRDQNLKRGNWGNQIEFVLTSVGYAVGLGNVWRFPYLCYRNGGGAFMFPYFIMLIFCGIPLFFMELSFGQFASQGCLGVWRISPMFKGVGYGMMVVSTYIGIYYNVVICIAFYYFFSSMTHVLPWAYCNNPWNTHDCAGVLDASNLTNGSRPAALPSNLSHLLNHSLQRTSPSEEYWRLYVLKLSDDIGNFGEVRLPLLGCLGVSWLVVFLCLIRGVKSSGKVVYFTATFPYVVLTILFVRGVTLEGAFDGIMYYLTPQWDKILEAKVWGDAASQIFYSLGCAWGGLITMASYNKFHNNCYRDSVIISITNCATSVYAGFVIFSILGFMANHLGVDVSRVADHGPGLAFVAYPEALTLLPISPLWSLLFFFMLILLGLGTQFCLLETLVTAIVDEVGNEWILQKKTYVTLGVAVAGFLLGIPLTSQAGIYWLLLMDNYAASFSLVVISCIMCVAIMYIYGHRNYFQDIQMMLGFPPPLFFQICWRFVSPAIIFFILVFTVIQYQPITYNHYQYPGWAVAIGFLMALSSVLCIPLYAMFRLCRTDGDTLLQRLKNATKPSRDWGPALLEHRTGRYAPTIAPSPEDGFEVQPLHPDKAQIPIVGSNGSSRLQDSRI
As to the kind of experiment: Radioligand binding assay using recombinant CHO cell membranes expressing human GlyT1. To be noted: radioligand binding to human GlyT1c transporter-expressing membranes. The source says:
2. Radioligand binding assays using recombinant CHO cell membranes expressing human GlyT1: […]
With `O=C(N[C@@H]1CN(S(=O)(=O)CC2CC2)C[C@H]1c1ccccc1)c1cccc(C(F)(F)F)c1Cl` (relative stereo) [Example 130, 2-chloro-N-{trans-1-[(cyclopropylmethyl)sulfonyl]-4-phenylpyrrolidin-3-yl}-3-(trifluoromethyl)benzamide], the Ki is > 10000 nM.
For the compound `CCc1cc(N[C@H]2CN(S(=O)(=O)c3cn(C)cn3)C[C@@H]2c2ccc(F)cc2)ncn1` [Example 613, 6-ethyl-N-{(3R,4S)-4-(4-fluorophenyl)-1-[(1-methyl-1H-imidazol-4-yl)sulfonyl]pyrrolidin-3-yl}pyrimidin-4-amine], the Ki was ≤ 1000 nM.
The same measure, in the same setting: to `Cc1nc(C)c(CN[C@H]2CN(S(=O)(=O)c3cn(C)cn3)C[C@@H]2c2ccccc2)s1` [Example 441, (3R,4S)-N-[(2,4-dimethyl-1,3-thiazol-5-yl)methyl]-1-[(1-methyl-1H-imidazol-4-yl)sulfonyl]-4-phenylpyrrolidin-3-amine] belongs ≤ 10000 nM.
`Cn1cnc(S(=O)(=O)N2C[C@@H](Nc3ccc(F)cc3)[C@H](c3ccccc3)C2)c1` (relative stereo) [Example 71, trans-N-(4-fluorophenyl)-1-[(1-methyl-1H-imidazol-4-yl)sulfonyl]-4-phenylpyrrolidin-3-amine]: the inhibition constant (Ki) was ≤ 1000 nM.
On the same count and under the same terms, to `O=C(N[C@@H]1CN(S(=O)(=O)c2cccnc2)C[C@H]1c1ccccc1)c1cccc(C(F)(F)F)c1Cl` (relative stereo) [Example 45, 2-chloro-N-[trans-4-phenyl-1-(pyridin-3-ylsulfonyl)pyrrolidin-3-yl]-3-(trifluoromethyl)benzamide] belongs ≥ 10000 nM; to `CC(C)Oc1cccc(NC2CN(S(=O)(=O)c3cn(C)cn3)CC2c2ccc(F)cc2)c1` (stereo not drawn) [Example 349, 4-(4-fluorophenyl)-1-[(1-methyl-1H-imidazol-4-yl)sulfonyl]-N-[3-(propan-2-yloxy)phenyl]pyrrolidin-3-amine], ≤ 100 nM.
On to `Cn1cnc(S(=O)(=O)N2C[C@H](Nc3ccc4c(c3)CCC4)[C@@H](c3ccccc3)C2)c1` [Example 655, (3R,4S)-N-(2,3-dihydro-1H-inden-5-yl)-1-[(1-methyl-1H-imidazol-4-yl)sulfonyl]-4-phenylpyrrolidin-3-amine], for which the Ki was ≤ 1000 nM.
Regarding `Cn1cnc(S(=O)(=O)N2C[C@@H](NCc3ccc(C(F)(F)F)cc3Cl)[C@H](c3ccccc3F)C2)c1` (relative stereo) [Example 283, trans-N-[2-chloro-4-(trifluoromethyl)benzyl] -4-(2-fluorophenyl)-1-[(1-methyl-1H-imidazol-4-yl)sulfonyl]pyrrolidin-3-amine], the Ki was ≤ 100 nM.
Regarding `COc1ccc(N[C@@H]2CN(S(=O)(=O)c3cn(C)cn3)C[C@H]2c2ccccc2)cc1` (relative stereo) [Example 50, trans-N-(4-methoxyphenyl)-1-[(1-methyl-1H-imidazol-4-yl)sulfonyl]-4-phenylpyrrolidin-3-amine], the Ki is ≤ 10000 nM.
On to `Cn1cnc(S(=O)(=O)N2C[C@H](Nc3cc(OCc4ccccc4)c(F)cn3)[C@@H](c3ccccc3)C2)c1` [Example 776, 4-(benzyloxy)-5-fluoro-N-{(3R,4S)-1-[(1-methyl-1H-imidazol-4-yl)sulfonyl]-4-phenylpyrrolidin-3-yl}pyridin-2-amine], for which the inhibition constant Ki was ≤ 10 nM.
Take `Cc1ccc(CN[C@@H]2CN(S(=O)(=O)c3cn(C)cn3)C[C@H]2c2ccc(F)cc2)cc1` (relative stereo) [Example 155, trans-4-(4-fluorophenyl)-N-(4-methylbenzyl)-1-[(1-methyl-1H-imidazol-4-yl)sulfonyl]pyrrolidin-3-amine]: the Ki was ≤ 100 nM.
With `Cn1cnc(S(=O)(=O)N2C[C@@H](NC(=O)c3ccc(C(F)(F)F)c(Cl)c3)[C@H](c3ccccc3)C2)c1` (relative stereo) [Example 61, 3-chloro-N-{trans-1-[(1-methyl-1H-imidazol-4-yl)sulfonyl]-4-phenylpyrrolidin-3-yl}-4-(trifluoromethyl)benzamide], the Ki was ≤ 1000 nM.
For `Cn1cnc(S(=O)(=O)N2C[C@@H](COc3ccccc3)[C@H](c3ccc(F)cc3)C2)c1` (relative stereo) [Example 245, 4-{[trans-3-(4-fluorophenyl)-4-(phenoxymethyl)pyrrolidin-1-yl]sulfonyl}-1-methyl-1H-imidazole], the Ki is ≤ 100 nM.
As to `Cn1cnc(S(=O)(=O)N2C[C@H](NCC3CNC(C(F)(F)F)CN3)[C@@H](c3ccccc3)C2)c1` (stereo partly drawn) [Example 423, (3R,4S)-1-[(1-methyl-1H-imidazol-4-yl)sulfonyl]-4-phenyl-N-{[5-(trifluoromethyl)piperazin-2-yl]methyl}pyrrolidin-3-amine], the Ki is ≤ 10000 nM.
With `CC(C)(C)OC(=O)N[C@@H]1CN(S(=O)(=O)c2ccccc2C#N)C[C@H]1c1ccccc1` (relative stereo) [Example 523, tert-butyl {trans-1-[(2-cyanophenyl)sulfonyl]-4-phenylpyrrolidin-3-yl}carbamate], the Ki was ≤ 10000 nM.
As for `Cc1nn(C)c(Cl)c1S(=O)(=O)N1C[C@@H](NC(=O)c2cccc(C(F)(F)F)c2Cl)[C@H](c2ccccc2)C1` (relative stereo) [Example 40, 2-chloro-N-{trans-1-[(5-chloro-1,3-dimethyl-1H-pyrazol-4-yl)sulfonyl]-4-phenylpyrrolidin-3-yl}-3-(trifluoromethyl)benzamide], the inhibitory constant (Ki) was ≥ 10000 nM.
Take `Cn1cnc(S(=O)(=O)N2CC(Cc3cccc(Cl)c3)C(C3CC3)C2)c1` (stereo not drawn) [Example 309, 4-{[3-(3-chlorobenzyl)-4-cyclopropylpyrrolidin-1-yl]sulfonyl}-1-methyl-1H-imidazole]: the Ki was ≤ 1000 nM.
The same measure, in the same setting: the figure for `Cc1ccc(N[C@@H]2CN(S(=O)(=O)c3cn(C)cn3)C[C@H]2c2ccc(F)cc2)cc1` (relative stereo) [Example 86, trans-4-(4-fluorophenyl)-1-[(1-methyl-1H-imidazol-4-yl)sulfonyl]-N-(4-methylphenyl)pyrrolidin-3-amine] is ≤ 1000 nM; for `Cn1cnc(S(=O)(=O)N2C[C@H](NC(=O)c3cnc(Cl)cn3)[C@@H](c3ccccc3)C2)c1` [Example 415, 5-chloro-N-{(3R,4S)-1-[(1-methyl-1H-imidazol-4-yl)sulfonyl]-4-phenylpyrrolidin-3-yl}pyrazine-2-carboxamide] it is ≤ 10000 nM; for `CC(C)OCCNC[C@@H]1CN(S(=O)(=O)c2cn(C)cn2)C[C@H]1c1ccc(F)cc1` (relative stereo) [Example 599, N-({trans-4-(4-fluorophenyl)-1-[(1-methyl-1H-imidazol-4-yl)sulfonyl]pyrrolidin-3-yl}methyl)-2-(propan-2-yloxy)ethanamine] it is ≤ 10000 nM.
For the compound `Cn1cnc(S(=O)(=O)N2C[C@H](Nc3ccc4c(c3)CCO4)[C@@H](c3ccccc3)C2)c1` [Example 671, (3R,4S)-N-(2,3-dihydro-1-benzofuran-5-yl)-1-[(1-methyl-1H-imidazol-4-yl)sulfonyl]-4-phenylpyrrolidin-3-amine], the Ki was ≤ 1000 nM.
Take `Cn1cnc(S(=O)(=O)N2C[C@@H](Nc3cccc(F)n3)[C@H](c3ccccc3)C2)c1` (relative stereo) [Example 235, 6-fluoro-N-{trans-1-[(1-methyl-1H-imidazol-4-yl)sulfonyl]-4-phenylpyrrolidin-3-yl}pyridin-2-amine]: the Ki was ≤ 10000 nM.
With `CC(=O)CCC(=O)N[C@H]1CN(S(=O)(=O)c2cn(C)cn2)C[C@@H]1c1ccc(F)cc1` [Example 738, N-{(3R,4S)-4-(4-fluorophenyl)-1-[(1-methyl-1H-imidazol-4-yl)sulfonyl]pyrrolidin-3-yl}-4-oxopentanamide], the Ki was > 10000 nM.
Turning to `Cn1cnc(S(=O)(=O)N2C[C@@H](C(=O)Nc3cccc(C(F)(F)F)c3Cl)[C@H](c3ccc(F)cc3)C2)c1` (relative stereo) [Example 272, Trans-N-[2-chloro-3-(trifluoromethyl)phenyl] -4-(4-fluorophenyl)-1 - [(1-methyl-1H-imidazol-4-yl)sulfonyl]pyrrolidine-3-carboxamide], the inhibitory constant (Ki) is ≤ 1000 nM.
With `Cn1cnc(S(=O)(=O)N2C[C@@H](NCc3ccccc3C(F)(F)F)[C@H](c3ccc(F)cc3)C2)c1` (relative stereo) [Example 265, trans-4-(4-fluorophenyl)-1-[(1-methyl-1H-imidazol-4-yl)sulfonyl]-N-[2-(trifluoromethyl)benzyl]pyrrolidin-3-amine], the inhibition constant Ki is ≤ 1000 nM.

The test is the same for the next values; noted with them: radioligand binding, recombinant CHO cell membranes expressing human GlyT1c.
With `Cn1cnc(S(=O)(=O)N2C[C@@H](Nc3cccc(OCC(F)(F)F)c3)[C@H](C3CCCCO3)C2)c1` (relative stereo) [Example 816, Trans-1-[(1-methyl-1H-imidazol-4-yl)sulfonyl]-4-(tetrahydro-2H-pyran-2-yl)-N-[3-(2,2,2-trifluoroethoxy)phenyl]pyrrolidin-3-amine], the Ki was ≤ 10 nM.
On the same count and under the same terms, to `Cn1cnc(S(=O)(=O)N2C[C@@H](Nc3ccc(F)c(Cl)c3)[C@H](C3CCOC3)C2)c1` (relative stereo) [Example 830, trans -N-(3-chloro-4-fluorophenyl)-1-[(1-methyl-1H-imidazol-4-yl)sulfonyl] -4-(tetrahydrofuran-3 - yl)pyrrolidin-3-amine] belongs ≤ 10000 nM.

Usually Ki stands for a measure of affinity in units of concentration, obtained from inhibition or displacement.

(Values after patent EP2970215B1, “PYRROLIDINE DERIVATIVES, PHARMACEUTICAL COMPOSITIONS CONTAINING THEM, AND THEIR USE IN THERAPY” (AbbVie Deutschland GmbH & Co. KG, priority 2013, dated 2014).)
